Data on 24 molecules can be found in patent publication US9896445B2, “Heterocyclic inhibitors of ERK1 and ERK2 and their use in the treatment of cancer” (Asana Biosciences, LLC, priority 2015, dated 2018).

One assay concerns the target T1, ERK1 (Homo sapiens, UniProt P27361).
T1 construct: purchased Jubilant Biosys
In words: ERK1 HTRF (biochemical) assay. To be noted: HTRF. The procedure:
(§1) ERK1 and ERK2 HTRF (Biochemical) Assays
These assays employed a homogeneous time resolved fluorescence (HTRF) technique. […] The plate was incubated at room temperature for 60 min with shaking. […] The IC50 values (half maximal inhibitory concentration values) were subsequently determined using a sigmoidal dose-response curve (variable slope) in GraphPad Prism® 5 software.

The next assay concerns the target T2, ERK2 (Homo sapiens, UniProt P28482).
T2 construct: purchased Jubilant Biosys
Kind of assay: ERK2 HTRF (biochemical) assay. To be noted: HTRF. As for the experimental part: as §1
These assays employed a homogeneous time resolved fluorescence (HTRF) technique. The compounds were serially diluted by half-log with concentrations ranging from 0.0005 to 10 uM in the assay buffer (50 mM Tris pH=7.5, 1 mM EGTA, 2 mM DTT, 10 mM MgCl2, 0.1% Tween-20) and 20 uL of substrate-ATP mix [1 uM Biotin-LC-Myelin Basic Protein (MBP) derivatized Peptide (Anaspec)-24 uM ATP (Sigma)] was added to each well of the assay plate. Then 10 uL of enzyme mix [25 nM ERK1 or ERK2 (Jubilant Biosys) in assay buffer] was added to each well. The plate was incubated at room temperature for 60 min with shaking. The HTRF mix [625 nM LANCE® Ultra Europium-anti-phospho-MBP (Perkin Elmer) and 2 nM Phycolink® Streptavidin-Allophycocyanin (SA-APC) (Prozyme) in HTRF buffer (50 mM Tris-HCl pH=7.5, 100 mM NaCl, 0.1% BSA, 0.05% Tween20, 0.5 mM EDTA)] was prepared and 75 uL of this mix was added to the HTRF plate. After incubation for 60 min at room temperature, 10 uL of the reaction mixture was transferred to the HTRF assay plate and incubated for 45 min at room temperature with shaking. Plate was read using Pherastar in HTRF mode (excitation 337 nm, emission 665 & 620 nm). The IC50 values (half maximal inhibitory concentration values) were subsequently determined using a sigmoidal dose-response curve (variable slope) in GraphPad Prism® 5 software.
On the technique in general: TR-FRET usually uses a lanthanide donor and a delayed reading to cut background.

T2 sequence (P28482 whole entry): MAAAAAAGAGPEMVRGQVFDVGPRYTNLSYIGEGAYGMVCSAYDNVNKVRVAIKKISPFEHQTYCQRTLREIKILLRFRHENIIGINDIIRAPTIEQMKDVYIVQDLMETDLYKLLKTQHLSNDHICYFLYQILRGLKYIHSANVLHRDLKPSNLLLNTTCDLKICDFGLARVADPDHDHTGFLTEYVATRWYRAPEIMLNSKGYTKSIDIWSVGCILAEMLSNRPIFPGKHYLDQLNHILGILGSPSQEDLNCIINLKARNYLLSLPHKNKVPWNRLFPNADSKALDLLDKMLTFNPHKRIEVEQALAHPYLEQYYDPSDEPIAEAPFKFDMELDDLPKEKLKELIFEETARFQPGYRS
T1 sequence (P27361 whole entry): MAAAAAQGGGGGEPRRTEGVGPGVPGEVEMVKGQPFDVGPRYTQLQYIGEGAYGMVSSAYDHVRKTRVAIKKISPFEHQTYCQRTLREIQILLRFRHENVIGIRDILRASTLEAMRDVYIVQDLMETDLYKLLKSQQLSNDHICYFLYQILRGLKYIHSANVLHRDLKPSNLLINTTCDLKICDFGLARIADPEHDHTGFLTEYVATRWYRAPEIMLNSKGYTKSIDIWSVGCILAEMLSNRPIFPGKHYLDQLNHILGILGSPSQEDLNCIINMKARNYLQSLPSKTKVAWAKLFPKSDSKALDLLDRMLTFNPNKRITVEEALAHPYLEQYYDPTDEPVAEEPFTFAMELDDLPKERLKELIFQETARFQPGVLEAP

As for `O=C(Nc1cnn(-c2ccnc(NC3CC3)n2)c1)N[C@H](CO)c1cccc(Cl)c1` [Compound 6, (S)-1-(1-(3-chlorophenyl)-2-hydroxyethyl)-3-(1-(2-(cyclopropyl-amino)pyrimidin-4-yl)-1H-pyrazol-4-yl)urea], the figures for the IC50 against ERK1 and at ERK2 were less than 50 nM and no more than 50 nM, respectively.
On the same counts, the results for `O=C(Nc1cnn(-c2ccnc(Nc3ccccc3Cl)n2)c1)N[C@H](CO)c1ccccc1` [Compound 7, (S)-1-(1-(2-((2-chlorophenyl)amino)pyrimidin-4-yl)-1H-pyrazol-4-yl)-3-(2-hydroxy-1-phenylethyl)urea] are 50 to 100 nM and 50 to 100 nM.
For `O=C(Nc1cnn(-c2ccnc(Nc3ccccc3)n2)c1)N[C@H](CO)c1cccc(Cl)c1` [Compound 12, (S)-1-(1-(3-chlorophenyl)-2-hydroxyethyl)-3-(1-(2-(phenyl-amino)pyrimidin-4-yl)-1H-pyrazol-4-yl)urea] the same measures were less than 50 nM and no more than 50 nM.
With `CC(C)C[C@H](CO)Nc1nccc(-n2cc(NC(=O)N[C@H](CO)c3cccc(Cl)c3)cn2)n1` [Compound 13, 1-((S)-1-(3-chlorophenyl)-2-hydroxyethyl)-3-(1-(2-(((R)-1-hydroxy-4-methylpentan-2-yl)amino)pyrimidin-4-yl)-1H-pyrazol-4-yl)urea], the IC50 against ERK1 and against ERK2 was 100 to 500 nM each time.
On to `O=C(Nc1cnn(-c2ccnc(N[C@H]3CC[C@H](O)CC3)n2)c1)N[C@H](CO)c1cccc(Cl)c1` [Compound 14, 1-((S)-1-(3-chlorophenyl)-2-hydroxyethyl)-3-(1-(2-((trans-4-hydroxycyclohexyl)amino)pyrimidin-4-yl)-1H-pyrazol-4-yl)urea], for which the IC50 against ERK1 and against ERK2 was 100 to 500 nM each time.
With `O=C(Nc1cnn(-c2ccnc(NC3CC3)n2)c1)NC(CO)c1cccc(Cl)c1` (stereo not drawn) [Compound 16, 1-(1-(3-chlorophenyl)-2-hydroxyethyl)-3-(1-(2-(cyclopropyl-amino)pyrimidin-4-yl)-1H-pyrazol-4-yl)urea], the IC50 – broadly, the concentration at which inhibition is half-maximal – fell in the range of 100 to 500 nM against ERK1 and 50 to 100 nM at ERK2.
For `CN(C(=O)Nc1cnn(-c2ccnc(NC3CC3)n2)c1)[C@H](CO)c1ccccc1` [Compound 18, (S)-3-(1-(2-(cyclopropylamino)pyrimidin-4-yl)-1H-pyrazol-4-yl)-1-(2-hydroxy-1-phenylethyl)-1-methylurea] the same measures were less than 50 nM and 100 to 500 nM.
For the molecule `O=C(Nc1cnn(-c2ccnc(Nc3ccc(F)cc3Cl)n2)c1)N[C@H](CO)c1cccc(Cl)c1` [Compound 20, (S)-1-(1-(2-((2-chloro-4-fluorophenyl)amino)pyrimidin-4-yl)-1H-pyrazol-4-yl)-3-(1-(3-chlorophenyl)-2-hydroxyethyl)urea], the IC50 against ERK1 is less than 50 nM; on ERK2 it was no more than 50 nM.
On the same counts, the results for `O=C(Nc1cnn(-c2ccnc(Nc3ccc4c(c3)OCO4)n2)c1)N[C@H](CO)c1cccc(Cl)c1` [Compound 21, (S)-1-(1-(2-(benzo[d][1,3]dioxol-5-ylamino)-pyrimidin-4-yl)-1H-pyrazol-4-yl)-3-(1-(3-chlorophenyl)-2-hydroxyethyl)urea] are less than 50 nM and no more than 50 nM.
Consider `CN1CCN(c2ccc(Nc3nccc(-n4cc(NC(=O)N[C@H](CO)c5cccc(Cl)c5)cn4)n3)cc2)CC1` [Compound 22, (S)-1-(1-(3-chlorophenyl)-2-hydroxyethyl)-3-(1-(2-((4-(4-methylpiperazin-1-yl)-phenyl)amino)pyrimidin-4-yl)-1H-pyrazol-4-yl)urea], for which the half-inhibitory concentration (IC50) on ERK1 lay within 100 to 500 nM; on ERK2 it was 50 to 100 nM.
On the same counts, the results for `Cc1cnc(Nc2cccnc2)nc1-n1cc(NC(=O)N[C@H](CO)c2cccc(Cl)c2)cn1` [Compound 23, (S)-1-(1-(3-chlorophenyl)-2-hydroxyethyl)-3-(1-(5-methyl-2-(pyridin-3-yl-amino)pyrimidin-4-yl)-1H-pyrazol-4-yl)urea] are less than 50 nM and no more than 50 nM.
For `Cc1cnc(NC2CC2)nc1-n1cc(NC(=O)NC(CO)c2cccc(Cl)c2)cn1` (stereo not drawn) [Compound 28, 1-(1-(3-chloro-phenyl)-2-hydroxy-ethyl)-3-(1-(2-(cyclopropyl-amino)-5-methylpyrimidin-4-yl)-1H-pyrazol-4-yl)urea] the same measures were 50 to 100 nM and 50 to 100 nM.
For `Cc1cnc(Nc2ccc(F)cc2Cl)nc1-n1ccc(C(=O)N[C@H](CO)c2cccc(Cl)c2)c1` [Compound 29, (S)-1-(2-((2-Chloro-4-fluorophenyl)amino)-5-methylpyrimidin-4-yl)-N-(1-(3-chlorophenyl)-2-hydroxyethyl)-1H-pyrrole-3-carboxamide] the same measures were less than 50 nM and no more than 50 nM.
With `O=C(Nc1cnn(-c2nc(NC3CC3)ncc2F)c1)N[C@H](CO)c1cccc(Cl)c1` [Compound 30, (S)-1-(1-(3-chlorophenyl)-2-hydroxyethyl)-3-(1-(2-(cyclopropyl-amino)-5-fluoro-pyrimidin-4-yl)-1H-pyrazol-4-yl)urea], the IC50 is less than 50 nM against ERK1 and no more than 50 nM against ERK2.
`Cc1cnc(Nc2ccc(F)cc2Cl)nc1-n1ccc(C(=O)NC(CO)c2cccc(Cl)c2)c1` (stereo not drawn) [Compound 31, 1-(2-((2-chloro-4-fluorophenyl)amino)-5-methyl-pyrimidin-4-yl)-N-(1-(3-chlorophenyl)-2-hydroxyethyl)-1H-pyrrole-3-carboxamide]: the IC50 at ERK1 was less than 50 nM; on ERK2, no more than 50 nM.
On the same counts, the results for `Cc1cnc(Nc2ccc(F)cc2Cl)nc1-n1ccc(C(=O)NC(CO)c2ccccc2)c1` (stereo not drawn) [Compound 32, 1-(2-((2-chloro-4-fluorophenyl)amino)-5-methyl-pyrimidin-4-yl)-N-(2-hydroxy-1-phenylethyl)-1H-pyrrole-3-carboxamide] are less than 50 nM and no more than 50 nM.
For `Cc1cnc(Nc2ccc(F)cc2Cl)nc1-n1cc(C(=O)N[C@H](CO)c2cccc(Cl)c2)cn1` [Compound 35, (S)-1-(2-((2-chloro-4-fluoro-phenyl)amino)-5-methylpyrimidin-4-yl)-N-(1-(3-chloro-phenyl)-2-hydroxy-ethyl)-1H-pyrazole-4-carboxamide] the same measures were less than 50 nM and no more than 50 nM.
On the same counts, the results for `Cc1cnc(Nc2ccc(F)cc2Cl)nc1-n1cc(NC(=O)NC(CO)c2cccc(Cl)c2)cn1` (stereo not drawn) [Compound 36, 1-(1-(2-((2-chloro-4-fluorophenyl)-amino)-5-methyl-pyrimidin-4-yl)-1H-pyrazol-4-yl)-3-(1-(3-chlorophenyl)-2-hydroxyethyl)urea] are 100 to 500 nM and no more than 50 nM.
With `Cc1cnc(Nc2ccc3c(c2)OCO3)nc1-n1cc(NC(=O)NC(CO)c2cccc(Cl)c2)cn1` (stereo not drawn) [Compound 37, 1-(1-(2-(benzo[d][1,3]dioxol-5-ylamino)-5-methylpyrimidin-4-yl)-1H-pyrazol-4-yl)-3-(1-(3-chlorophenyl)-2-hydroxyethyl)urea], the IC50 is 100 to 500 nM against ERK1 and no more than 50 nM against ERK2.
On the same counts, the results for `C#Cc1cccc(Nc2nccc(-n3cc(NC(=O)N[C@H](CO)c4cccc(Cl)c4)cn3)n2)c1` [Compound 38, (S)-1-(1-(3-chlorophenyl)-2-hydroxyethyl)-3-(1-(2-((3-ethynyl-phenyl)amino)pyrimidin-4-yl)-1H-pyrazol-4-yl)urea] are less than 50 nM and no more than 50 nM.
On the same counts, the results for `Cc1cnc(NC2CC2)nc1-n1cc(C(=O)N[C@H](CO)c2cccc(Cl)c2)cn1` [Compound 39, (S)-N-(1-(3-chlorophenyl)-2-hydroxyethyl)-1-(2-(cyclopropylamino)-5-methylpyrimidin-4-yl)-1H-pyrazole-4-carboxamide] are 50 to 100 nM and no more than 50 nM.
For `Cc1cnc(NC2CC2)nc1-n1cc(C(=O)NC(CO)c2cccc(Cl)c2)cn1` (stereo not drawn) [Compound 40, N-(1-(3-chlorophenyl)-2-hydroxyethyl)-1-(2-(cyclopropyl-amino)-5-methylpyrimidin-4-yl)-1H-pyrazole-4-carboxamide] the same measures were 50 to 100 nM and 50 to 100 nM.
As to `Cc1cnc(Nc2ccc3c(c2)OCO3)nc1-n1cc(C(=O)NC(CO)c2cccc(Cl)c2)cn1` (stereo not drawn) [Compound 41, 1-(2-(benzo[d][1,3]dioxol-5-ylamino)-5-methylpyrimidin-4-yl)-N-(1-(3-chloro-phenyl)-2-hydroxy-ethyl)-1H-pyrazole-4-carboxamide], the IC50 was 100 to 500 nM against ERK1 and no more than 50 nM at ERK2.
For `Cc1cnc(Nc2ccc3c(c2)OCO3)nc1-n1ccc(C(=O)NC(CO)c2cccc(Cl)c2)c1` (stereo not drawn) [Compound 42, 1-(2-(benzo[d][1,3]dioxol-5-ylamino)-5-methylpyrimidin-4-yl)-N-(1-(3-chloro-phenyl)-2-hydroxy-ethyl)-1H-pyrrole-3-carboxamide] the same measures were less than 50 nM and no more than 50 nM.
